According to US9340554B2, “IRAK inhibitors and uses thereof” (Nimbus Iris, Inc., priority 2011, dated 2016):

biological target: T1, IRAK4 (Homo sapiens, UniProt Q9NWZ3); experiment: IRAK-4 activity inhibition assay (Caliper, Peptide 8, 37 μM ATP); type: biochemical; conditions: 3.5 nM IRAK4, 1.5 μM Peptide 8, 37 μM ATP, 28° C. 40 minutes; read-out: IRAK-4 activity inhibition IC50
T1 construct: purchased CARNA Bioscience 09-145
T1 sequence (Q9NWZ3 1-460): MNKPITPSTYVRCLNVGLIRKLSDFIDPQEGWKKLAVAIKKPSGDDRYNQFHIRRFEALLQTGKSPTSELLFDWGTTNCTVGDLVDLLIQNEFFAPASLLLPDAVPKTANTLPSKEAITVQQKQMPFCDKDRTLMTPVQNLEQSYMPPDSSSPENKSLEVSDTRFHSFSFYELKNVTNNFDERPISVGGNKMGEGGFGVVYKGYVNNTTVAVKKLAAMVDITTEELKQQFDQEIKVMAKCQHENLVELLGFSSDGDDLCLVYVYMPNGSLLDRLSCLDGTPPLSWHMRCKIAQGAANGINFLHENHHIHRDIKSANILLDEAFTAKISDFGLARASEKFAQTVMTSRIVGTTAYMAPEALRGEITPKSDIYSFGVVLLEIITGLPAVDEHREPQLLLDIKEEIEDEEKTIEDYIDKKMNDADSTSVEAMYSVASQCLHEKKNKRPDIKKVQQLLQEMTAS
Experimental: A 1× kinase base buffer was prepared from 50 mM HEPES, pH 7.5 and 0.0015% Brij-35. A stop buffer was prepared from 100 mM HEPES, pH 7.5, 0.015% Brij-35, 0.2% Coating Reagent #3, and 50 mM EDTA.
Test compound was diluted to 50× of the final desired highest inhibitor concentration in reaction by 100% DMSO. 100 ul of this compound dilution was transferred to a well in a 96-well plate.
Test compound was serially diluted by transferring 30 μl to 60 μl of 100% DMSO in the next well and so forth for a total of 10 concentrations. 100 μl of 100% DMSO was added to two empty wells for no compound control and no enzyme control in the same 96-well plate.
A new 96-well plate was marked as intermediate plate. 5 μl of compound serial dilution was transferred from source plate to the corresponding wells of the intermediate plate. 45 μl of 1× kinase base buffer (KB buffer) was added to each well of the intermediate plate. The intermediate plate was placed for 10 min on a shaker.
5 μl of each well was transferred from the 96-well intermediate plate to a 384-well plate in duplicates. […] A2 of the 96-well plate is transferred to A3 and A4 of the 384-well plate, and so on.
IRAK4 and DTT in 1× kinase base buffer was added.
Assay plate already contained 5 μl of compound in 10% DMSO. Added 10 μl of 2.5× enzyme solution to each well of the 384-well assay plate, except no enzyme control wells. […] Added 10 μl of 1× kinase base buffer to no enzyme control wells in the assay plate. Incubated at room temperature for 10 min.
Added 10 μl of 2.5× peptide solution to each well of the 384-well assay plate. […] Incubated at 28° C. for 40 minutes. Added 25 μl of stop buffer to stop reaction. Collected data on Caliper.
Copied conversion % data from Caliper program. Converted conversion % values to percent inhibition values. Percent inhibition=(max−conversion %)/(max−min)*100, where “max” means the conversion % of DMSO control and “min” means the conversion % of no enzyme control.
The compound numbers correspond to the compound numbers in Table 1. […] “NA” stands for “not assayed.”

Row | Compound | IC50
1 | c1nc(N[C@H]2CC[C@H](N3CCOCC3)CC2)c2c3c(sc2n1)CCC3 [Compound I-149, N-((1r,4r)-4-morpholinocyclohexyl)-6,7-dihydro-5H-cyclopenta[4,5]thieno[2,3-d]pyrimidin-4-amine] | < 5 µM
2 | CN(Cc1cccc(C(=O)O)c1)[C@H]1CC[C@H](Nc2ncnc3sc4c(c23)CCC4)CC1 [Compound I-167, 3-([methyl[4-([7-thia-9,11-diazatricyclo[6.4.0.0^[2,6]]dodeca-1(8),2(6),9,11-tetraen-12-yl]amino)cyclohexyl]amino]methyl)benzoic acid] | < 5 µM
3 | N[C@H]1CC[C@H](Nc2ncnc3sc4c(c23)CCCC4)CC1 [Compound I-49, trans-N^1-(5,6,7,8-tetrahydrobenzo[4,5]thieno[2,3-d]pyrimidin-4-yl)cyclohexane-1,4-diamine] | < 5 µM
4 | CN(CC(=O)N1CCCCC1)[C@H]1CC[C@H](Nc2ncnc3sc4c(c23)CCC4)CC1 [Compound I-129, 2-[methyl[4-([7-thia-9,11-diazatricyclo[6.4.0.0[2,6]]dodeca-1(12),2(6),8,10-tetraen-12-yl]amino)cyclohexyl]amino]-1-(piperidin-1-yl)ethan-1-one] | < 5 µM
5 | CN(Cc1cccc(CO)c1)[C@H]1CC[C@H](Nc2ncnc3sc4c(c23)CCC4)CC1 [Compound I-165, [3-([methyl[4-([7-thia-9,11-diazatricyclo[6.4.0.0^[2,6]]dodeca-1(8),2(6),9,11-tetraen-12-yl]amino)cyclohexyl]amino]methyl)phenyl]methanol] | < 5 µM
6 | CNCC1CCN(c2ncnc3sc4c(c23)CCC4)CC1 [Compound I-62] | 5 to 20 µM
7 | CN(Cc1ccc(C(N)=O)cc1)[C@H]1CC[C@H](Nc2ncnc3sc4c(c23)CCC4)CC1 [Compound I-164, 4-([methyl[4-([7-thia-9,11-diazatricyclo[6.4.0.0^[2,6]]dodeca-1(8),2(6),9,11-tetraen-12-yl]amino)cyclohexyl]amino]methyl)benzamide] | < 5 µM
8 | C[C@@H]1CCc2sc3ncnc(N[C@H]4CC[C@H](O)CC4)c3c2C1 [Compound I-47, trans-4-(((R)-6-methyl-5,6,7,8-tetrahydrobenzo[4,5]thieno[2,3-d]pyrimidin-4-yl)amino)cyclohexanol] | 5 to 20 µM
9 | CN(CCc1ccccc1Cl)[C@H]1CC[C@H](Nc2ncnc3sc4c(c23)CCC4)CC1 [Compound I-112, 1-N-[2-(2-chlorophenyl)ethyl]-1-N-methyl-4-N-[7-thia-9,11-diazatricyclo[6.4.0.0^[2,6]]dodeca-1(12),2(6),8,10-tetraen-12-yl]cyclohexane-1,4-diamine] | < 5 µM
10 | CCN[C@H]1CC[C@H](Nc2ncnc3sc4c(c23)CCC4)CC1 [Compound I-70] | < 5 µM
11 | CN(C)[C@H]1CC[C@H](N(C)c2ncnc3sc4c(c23)CCC4)CC1 [Compound I-144, (1r,4r)-N1-(6,7-dihydro-5H-cyclopenta[4,5]thieno[2,3-d]pyrimidin-4-yl)-N1,N4,N4-trimethylcyclohexane-1,4-diamine] | < 5 µM
12 | CN(CC(=O)Nc1ccccc1)[C@H]1CC[C@H](Nc2ncnc3sc4c(c23)CCC4)CC1 [Compound I-114, 2-[methyl[4-([7-thia-9,11-diazatricyclo[6.4.0.0^[2,6]]dodeca-1(8),2(6),9,11-tetraen-12-yl]amino)cyclohexyl]amino]-N-phenylacetamide] | < 5 µM
13 | CN[C@H]1CC[C@H](Nc2ncnc3sc4c(c23)CC(C)(C)CC4)CC1 [Compound I-41, trans-N^1-(6,6-dimethyl-5,6,7,8-tetrahydrobenzo[4,5]thieno[2,3-d]pyrimidin-4-yl)-N^4-methylcyclohexane-1,4-diamine] | < 5 µM
14 | NC(=O)C1CCN(c2ncnc3sc4c(c23)CCCC4)CC1 [Compound I-1] | 5 to 20 µM
15 | CC1CCc2c(sc3ncnc(N4CCC5(CC4)NC(=O)NC5=O)c23)C1 (centres unmarked) [Compound I-28] | 5 to 20 µM
16 | CCC1CCc2c(sc3ncnc(N4CCC(C(=O)NO)CC4)c23)C1 (centres unmarked) [Compound I-14] | < 5 µM

Row | Compound | IC50
17 | O=C(O)[C@@H]1CC[C@H](Nc2ncnc3sc4c(c23)CCC4)C1 [Compound I-6] | 20 to 50 µM
18 | c1nc(N[C@H]2CC[C@H](N3CCCC3)CC2)c2c3c(sc2n1)CCC3 [Compound I-142, N-((1r,4r)-4-(pyrrolidin-1-yl)cyclohexyl)-6,7-dihydro-5H-cyclopenta[4,5]thieno[2,3-d]pyrimidin-4-amine] | < 5 µM
19 | Cc1sc2ncnc(N[C@H]3CC[C@H](O)CC3)c2c1C [Compound I-19, trans-4-((5,6-dimethylthieno[2,3-d]pyrimidin-4-yl)amino)cyclohexanol] | 5 to 20 µM
20 | N[C@H]1CC[C@H](Oc2ncnc3sc4c(c23)CCC4)CC1 [Compound I-61, trans-4-((6,7-dihydro-5H-cyclopenta[4,5]thieno[2,3-d]pyrimidin-4-yl)oxy)cyclohexanamine] | < 5 µM
21 | CN(CC(N)=O)[C@H]1CC[C@H](Nc2ncnc3sc4c(c23)CCC4)CC1 [Compound I-122, 2-(((1r,4r)-4-((6,7-dihydro-5H-cyclopenta[4,5]thieno[2,3-d]pyrimidin-4-yl)amino)cyclohexyl)(methyl)amino)acetamide] | < 5 µM
22 | CN(Cc1cnccn1)[C@H]1CC[C@H](Nc2ncnc3sc4c(c23)CCC4)CC1 [Compound I-105] | < 5 µM
23 | COc1ccc(OCCN2CCN(c3ncnc4sc5c(c34)CCCC5)CC2)cc1 [Compound I-27] | 5 to 20 µM
24 | CN(Cc1ccncc1Cl)[C@H]1CC[C@H](Nc2ncnc3sc4c(c23)CCC4)CC1 [Compound I-100, 1-N-[(3-chloropyridin-4-yl)methyl]-1-N-methyl-4-N-[7-thia-9,11-diazatricyclo[6.4.0.0^[2,6]]dodeca-1(8),2(6),9,11-tetraen-12-yl]cyclohexane-1,4-diamine] | < 5 µM
25 | CCC1CCc2c(sc3ncnc(N4CCN(C)CC4)c23)C1 (centres unmarked) [Compound I-16] | 5 to 20 µM
26 | c1nc(OCC2CCNCC2)c2c3c(sc2n1)CCC3 [Compound I-60] | 5 to 20 µM
27 | c1nc(N[C@H]2CC[C@H](N3CCCCC3)CC2)c2c3c(sc2n1)CCC3 [Compound I-143, N-((1r,4r)-4-(piperidin-1-yl)cyclohexyl)-6,7-dihydro-5H-cyclopenta[4,5]thieno[2,3-d]pyrimidin-4-amine] | < 5 µM
28 | c1nc(NCCN2CCNCC2)c2c3c(sc2n1)CCC3 [Compound I-147, N-(2-(piperazin-1-yl)ethyl)-6,7-dihydro-5H-cyclopenta[4,5]thieno[2,3-d]pyrimidin-4-amine] | > 50 µM
29 | O=C(CN[C@H]1CC[C@H](Oc2ncnc3sc4c(c23)CCC4)CC1)N1CCCC1 [Compound I-135, trans-1-(pyrrolidin-1-yl)-2-[(4-[7-thia-9,11-diazatricyclo[6.4.0.0[2,6]]dodeca-1(8),2(6),9,11-tetraen-12-yloxy]cyclohexyl)amino]ethan-1-one] | < 5 µM
30 | CN(Cc1c(F)cccc1Cl)[C@H]1CC[C@H](Nc2ncnc3sc4c(c23)CCC4)CC1 [Compound I-99, 1-N-[(2-chloro-6-fluorophenyl)methyl]-1-N-methyl-4-N-[7-thia-9,11-diazatricyclo[6.4.0.0^[2,6]]dodeca-1(8),2(6),9,11-tetraen-12-yl]cyclohexane-1,4-diamine] | < 5 µM
31 | CC(C)NC(=O)CN(C)[C@H]1CC[C@H](Nc2ncnc3sc4c(c23)CCC4)CC1 [Compound I-125, 2-(((1r,4r)-4-((6,7-dihydro-5H-cyclopenta[4,5]thieno[2,3-d]pyrimidin-4-yl)amino)cyclohexyl)(methyl)amino)-N-isopropylacetamide] | < 5 µM

same assay, conditions: IRAK-4 activity inhibition IC50, 3.5 nM IRAK4, 1.5 μM Peptide 8, 37 μM ATP, 28° C. 40 minutes

Row | Compound | IC50
32 | C[N+](C)(C)[C@H]1CC[C@H](Nc2ncnc3sc4c(c23)CCC4)CC1 [Compound I-139, (1r,4r)-4-((6,7-dihydro-5H-cyclopenta[4,5]thieno[2,3-d]pyrimidin-4-yl)amino)-N,N,N-trimethylcyclohexanaminium iodide] | 20 to 50 µM
